Laboratory results as given in US20040162263A1, “Pharmaceutical formulations targeting specific regions of the gastrointesinal tract” (priority 2002, published 2004).
Values belong to the molecule of their own block, whether it stands above or below them.

How the values were obtained:
[1] = Physico-chemical properties of decitabine (solubility, stability); assay type: physicochemical; conditions: room temp
[2] = Pharmacokinetics of 9-nitro-camptothecin (9NC) in IVAP beagle dog model; assay type: in vivo, beagle dogs
Method: Blood samples were taken systemic and from the portal vein through a sampling/delivery vascular port previously implanted, then plasma was separated by centrifugation and kept frozen at −80° C. until analysis.
The samples were analyzed in a Perkin Elmer liquid chromatography-tandem mass spectrometer system with a PE LC-200 Micro pump, a PE200 Autosampler and a PE Sciex API 365 mass spectrometry unit.
Adult male beagle dogs (between the ages of 1 and 5 years and weighed between 9 and 16 kg) were obtained from Summit Ridge Farms, Susquehanna, Pa. The IVAP dogs were prepared by using a protocol similar to the one used for pentostatin experiments described above.
On the morning of the test, each animal is weighed and placed in the sling. An IV catheter is installed in the brachial vein for systemic blood sampling with a multiuse vacutainer needle adapter. This is flushed with heparinized saline (50 units/ml) to maintain potency between sampling. When necessary, a 20 g or 22 g right-angled Huber infusion set would be placed in the PV port and attached to a three-way stopcock for PV blood sampling.
The preparation of the dose depends on the route of study. In case of IV and PV administration, the drug was dissolved in dimethylacetamide (DMA) at 5 mg/ml and 0.5 ml of the DMA concentrate filtered through a […] filter into 4.5 ml of diluent (51% PEG-400 49% 0.001 M H3PO4) prior to administration to the brachial or portal vein. In the case of all other infusions, as well as oral administration, the drug was dissolved in vegetable oil to a concentration of 1 mg/ml and drawn up into dosing syringes. Animals were dosed IV at 0.1 and 0.2 mg/kg and 0.2 mg/kg for all the other routes of administration tested.
In intravascular studies, the dose is administered via a second catheter and the entire volume is delivered within 45 seconds.
In portal vein studies, the dose is also administered via an additional catheter over a 30 min time period.
In the case of oral dosages, the dose is delivered to the back of the mouth with an appropriate size syringe and is followed with 5 ml of tap water to assist swallowing and clearance of the dose from the mouth. Capsules were administered similarly by placing them at the back of the mouth and giving around 5 ml of water to facilitate swallowing.
For all other tests, the dosage is infused into the appropriate intestinal port and flushed with 2-3 ml of sterile saline. The dead space volume of the ports and tubing vary slightly between individuals, but are generally less than 0.5 ml total. […]
Systemic blood samples allow the calculation of AUC0-inf after oral capsule administration only and portal vein AUC for all the routes of administration.

[3] = 9-NC 0.2 mg/kg COLON port, 0.17 hr
[4] = 9-NC 0.2 mg/kg ileum port, 0.17 hr
[5] = 9-NC 0.2 mg/kg jejunal port, 0.17 hr
[6] = portal vein samples, 9-NC via COLON port
[7] = portal vein samples, 9-NC via ILEUM port
[8] = portal vein samples, 9-NC via JEJUNUM port
[9] = systemic samples, 9-NC via COLON port
[10] = systemic samples, 9-NC via ILEUM port
[11] = systemic samples, 9-NC via JEJUNUM port

stability [1]: stable
SMILES: Nc1ncn([C@H]2C[C@H](O)[C@@H](CO)O2)c(=O)n1 [Decitabine monohydrate]

SMILES: CC[C@@]1(O)C(=O)OCc2c1cc1n(c2=O)Cc2cc3c([N+](=O)[O-])cccc3nc2-1 [9-NC, 9-nitro-20(S)-camptothecin]
Mean plasma concentration, Portal Vein [2, 3]: 0.53 ± 0.05 ng/mL
Mean plasma concentration, Systemic [2, 3]: 0.117 ng/mL
Mean plasma concentration, Portal Vein [2, 4]: 0.44 ± 0.10 ng/mL
Mean plasma concentration, Systemic [2, 4]: 0.11 ± 0.01 ng/mL
Mean plasma concentration, Portal Vein [2, 5]: 0.54 ± 0.22 ng/mL
Mean plasma concentration, Systemic [2, 5]: BQL
Mean plasma concentration, Portal Vein ([2]; COLON port, 0.5 hr): 0.37 ± 0.12 ng/mL
Mean plasma concentration, Systemic ([2]; COLON port, 0.5 hr): 0.1 ng/mL
Mean plasma concentration, Portal Vein ([2]; COLON port, 1 hr): 0.37 ± 0.15 ng/mL
Mean plasma concentration, Systemic ([2]; COLON port, 1 hr): 0.114 ng/mL
Mean plasma concentration, Systemic ([2]; COLON port, 1.5 hr): BQL
Mean plasma concentration, Portal Vein ([2]; COLON port, 2 hr): 0.16 ± 0.05 ng/mL
Mean plasma concentration, Systemic ([2]; COLON port, 2 hr): 0.134 ng/mL
Mean plasma concentration, Systemic ([2]; COLON port, 4 hr): BQL
Mean plasma concentration, Systemic ([2]; COLON port, 6 hr): BQL
Mean plasma concentration, Systemic ([2]; COLON port, 8 hr): BQL
Mean plasma concentration, Systemic ([2]; COLON port, 12 hr): BQL
Mean plasma concentration, Systemic ([2]; COLON port, 24 hr): 0.11 ng/mL
clearance ([2]; IV 0.1 mg/kg): 29.3 ± 3.17 mL/min/kg
half-life ([2]; IV 0.1 mg/kg, systemic): 0.88 ± 0.45 h
clearance ([2]; IV 0.2 mg/kg): 28.8 ± 13 mL/min/kg
Bioavailability (high iv dose) ([2]; Intracolon): 0.1 ± 0.1%
Bioavailability (low iv dose) ([2]; Intracolon): 0.1 ± 0.1%
Bioavailability, Average ([2]; Intracolon): 0.1%
Mean AUC0-inf of 9-NC, Portal Vein AUC ([2]; Intracolon 0.2 mg/kg): 1.48 ± 0.29 ng·h/mL
Mean AUC0-inf of 9-NC, Systemic AUC ([2]; Intracolon 0.2 mg/kg): 0.07 ± 0.06 ng·h/mL
Bioavailability (high iv dose) ([2]; Intraileum): 1.6 ± 1.1%
Bioavailability (low iv dose) ([2]; Intraileum): 1.6 ± 1.2%
Bioavailability, Average ([2]; Intraileum): 1.6%
Mean AUC0-inf of 9-NC, Portal Vein AUC ([2]; Intraileum 0.2 mg/kg): 1.76 ± 0.95 ng·h/mL
Mean AUC0-inf of 9-NC, Systemic AUC ([2]; Intraileum 0.2 mg/kg): 1.65 ± 1.15 ng·h/mL
Bioavailability (high iv dose) ([2]; Intrajejunal): 3.0 ± 3.2%
Bioavailability (low iv dose) ([2]; Intrajejunal): 3.0 ± 3.2%
Bioavailability, Average ([2]; Intrajejunal): 3.2%
Mean AUC0-inf of 9-NC, Portal Vein AUC ([2]; Intrajejunal 0.2 mg/kg): 4.46 ± 4.00 ng·h/mL
Mean AUC0-inf of 9-NC, Systemic AUC ([2]; Intrajejunal 0.2 mg/kg): 1.03 ± 1.34 ng·h/mL
Mean AUC0-inf of 9-NC, Portal Vein AUC ([2]; Intravenous - High (0.2 mg/kg)): 93.61 ± 17.02 ng·h/mL
Mean AUC0-inf of 9-NC, Systemic AUC ([2]; Intravenous - High (0.2 mg/kg)): 118.33 ± 21.82 ng·h/mL
Mean AUC0-inf of 9-NC, Portal Vein AUC ([2]; Intravenous - Low (0.1 mg/kg)): 45.05 ± 4.08 ng·h/mL
Mean AUC0-inf of 9-NC, Systemic AUC ([2]; Intravenous - Low (0.1 mg/kg)): 57.25 ± 5.84 ng·h/mL
Bioavailability (high iv dose) ([2]; Oral - capsule): 4.1 ± 3.8%
Bioavailability (low iv dose) ([2]; Oral - capsule): 4.2 ± 4.0%
Bioavailability, Average ([2]; Oral - capsule): 4.1%
Mean AUC0-inf of 9-NC, Portal Vein AUC ([2]; Oral - capsule 0.2 mg/kg): 11.48 ± 1.50 ng·h/mL
Mean AUC0-inf of 9-NC, Systemic AUC ([2]; Oral - capsule 0.2 mg/kg): 4.75 ± 4.61 ng·h/mL
Bioavailability (high iv dose) ([2]; Oral - suspension): 0.4 ± 0.6%
Bioavailability (low iv dose) ([2]; Oral - suspension): 0.4 ± 0.6%
Bioavailability, Average ([2]; Oral - suspension): 0.4%
Mean AUC0-inf of 9-NC, Portal Vein AUC ([2]; Oral - suspension 0.2 mg/kg): 11.97 ± 9.88 ng·h/mL
Mean AUC0-inf of 9-NC, Systemic AUC ([2]; Oral - suspension 0.2 mg/kg): 0.48 ± 0.53 ng·h/mL
Bioavailability (high iv dose) ([2]; Portal vein): 5.2 ± 0.8%
Bioavailability (low iv dose) ([2]; Portal vein): 5.4 ± 1.4%
Mean AUC0-inf of 9-NC, Systemic AUC ([2]; Portal vein infusion 0.2 mg/kg): 6.24 ± 2.11 ng·h/mL
Mean plasma concentration, Portal Vein ([2]; ileum port, 0.5 hr): 0.56 ± 0.32 ng/mL
Mean plasma concentration, Systemic ([2]; ileum port, 0.5 hr): 0.12 ng/mL
Mean plasma concentration, Portal Vein ([2]; ileum port, 1 hr): 0.22 ± 0.03 ng/mL
Mean plasma concentration, Systemic ([2]; ileum port, 1 hr): BQL
Mean plasma concentration, Portal Vein ([2]; ileum port, 1.5 hr): 0.34 ± 0.29 ng/mL
Mean plasma concentration, Systemic ([2]; ileum port, 1.5 hr): 0.13 ± 0.04 ng/mL
Mean plasma concentration, Portal Vein ([2]; ileum port, 2 hr): 0.13 ± 0.02 ng/mL
Mean plasma concentration, Systemic ([2]; ileum port, 2 hr): 0.10 ± 0.00 ng/mL
Mean plasma concentration, Portal Vein ([2]; ileum port, 3 hr): 0.12 ± 0.00 ng/mL
Mean plasma concentration, Systemic ([2]; ileum port, 3 hr): 0.17 ng/mL
Mean plasma concentration, Portal Vein ([2]; ileum port, 4 hr): BQL
Mean plasma concentration, Systemic ([2]; ileum port, 4 hr): 0.13 ng/mL
Mean plasma concentration, Portal Vein ([2]; ileum port, 6 hr): 0.10 ng/mL
Mean plasma concentration, Systemic ([2]; ileum port, 6 hr): BQL
Mean plasma concentration, Systemic ([2]; ileum port, 8 hr): 0.14 ng/mL
Mean plasma concentration, Systemic ([2]; ileum port, 12 hr): 0.14 ± 0.02 ng/mL
Mean plasma concentration, Systemic ([2]; ileum port, 24 hr): 0.13 ng/mL
Mean plasma concentration, Portal Vein ([2]; jejunal port, 0.5 hr): 0.41 ± 0.00 ng/mL
Mean plasma concentration, Systemic ([2]; jejunal port, 0.5 hr): 0.14 ng/mL
Mean plasma concentration, Portal Vein ([2]; jejunal port, 1 hr): 0.56 ± 0.47 ng/mL
Mean plasma concentration, Systemic ([2]; jejunal port, 1 hr): 0.15 ng/mL
Mean plasma concentration, Portal Vein ([2]; jejunal port, 2 hr): 0.37 ± 0.10 ng/mL
Mean plasma concentration, Systemic ([2]; jejunal port, 2 hr): 0.14 ng/mL
Mean plasma concentration, Portal Vein ([2]; jejunal port, 3 hr): 0.41 ng/mL
Mean plasma concentration, Systemic ([2]; jejunal port, 3 hr): 0.15 ng/mL
Mean plasma concentration, Portal Vein ([2]; jejunal port, 4 hr): BLOQ
Mean plasma concentration, Systemic ([2]; jejunal port, 4 hr): BQL
Mean plasma concentration, Portal Vein ([2]; jejunal port, 6 hr): BLOQ
Mean plasma concentration, Systemic ([2]; jejunal port, 6 hr): BQL
Mean plasma concentration, Portal Vein ([2]; jejunal port, 8 hr): BLOQ
Mean plasma concentration, Systemic ([2]; jejunal port, 8 hr): 1.36 ± 1.73 ng/mL
Mean plasma concentration, Systemic ([2]; jejunal port, 10 hr): BQL
Mean plasma concentration, Portal Vein ([2]; jejunal port, 12 hr): 0.15 ng/mL
Mean plasma concentration, Systemic ([2]; jejunal port, 12 hr): BQL
Mean plasma concentration, Portal Vein ([2]; jejunal port, 24 hr): BLOQ
Mean plasma concentration, Systemic ([2]; jejunal port, 24 hr): BQL
AUC0-INF ([2]; portal vein samples, 0.2 mg/kg 9-NC via COLON port): 1.48 ± 0.29 ng·h/mL
AUC0-INF ([2]; portal vein samples, 0.2 mg/kg 9-NC via ILEUM port): 1.76 ± 0.95 ng·h/mL
AUC0-INF ([2]; portal vein samples, 0.2 mg/kg 9-NC via JEJUNUM port): 4.46 ± 4.00 ng·h/mL
AUCLast [2, 6]: 0.73 ± 0.63 ng·h/mL
CMAX [2, 6]: 0.79 ± 0.61 ng/mL
MRT [2, 6]: 2.21 ± 1.46 h
TMAX [2, 6]: 1.67 ± 0.29 h
AUCLast [2, 7]: 0.87 ± 0.11 ng·h/mL
CMAX [2, 7]: 0.65 ± 0.20 ng/mL
MRT [2, 7]: 8.65 ± 1.62 h
T1/2 [2, 7]: 6.10 ± 7.50 h
TMAX [2, 7]: 0.34 ± 0.23 h
AUCLast [2, 8]: 0.85 ± 0.55 ng·h/mL
CMAX [2, 8]: 0.66 ± 0.24 ng/mL
MRT [2, 8]: 15.12 ± 1.62 h
T1/2 [2, 8]: 7.59 ± 3.14 h
TMAX [2, 8]: 0.56 ± 0.42 h
AUC0-INF ([2]; systemic samples, 0.2 mg/kg 9-NC via JEJUNUM port): 6.66 ng·h/mL
AUCLast [2, 9]: 0.07 ± 0.06 ng·h/mL
CMAX [2, 9]: 0.08 ± 0.07 ng/mL
F [2, 9]: 0.1 ± 0.1%
TMAX [2, 9]: 0.72 ± 1.11 h
AUCLast [2, 10]: 1.65 ± 1.15 ng·h/mL
CMAX [2, 10]: 0.17 ± 0.01 ng/mL
Cl/F [2, 10]: 85.5 mL/min/kg
F [2, 10]: 1.6 ± 1.2%
TMAX [2, 10]: 2.25 ± 1.06 h
Vz [2, 10]: 1441 L/kg
AUCLast [2, 11]: 1.03 ± 1.34 ng·h/mL
CMAX [2, 11]: 0.96 ± 1.40 ng/mL
Cl/F [2, 11]: 500 mL/min/kg
F [2, 11]: 3.0 ± 3.2%
MRT [2, 11]: 54.11 h
TMAX [2, 11]: 4.00 ± 3.61 h
Vz [2, 11]: 1469 L/kg
